Publication PMC9511481 (Journal of Medicinal Chemistry, 2022)
Where “and” joins values, the source holds several entries; their conditions need not be identical. Identical values can stand only once. Counter-ions that a name gives are not always drawn. Like-named read-outs stand apart in the source and are kept apart here.

Experiments:
5-HT2AR [1] = target: T1, 5-HT2AR (Homo sapiens, UniProt P28223); design: method as in PMID 32998000; details: wild-type 5-HT2AR; previously reported values; cited from earlier work
T1 construct: expressed in transfected cells; host or cells: HEK 293T (transient transfection)
Target sequence in this assay (P32121 whole entry): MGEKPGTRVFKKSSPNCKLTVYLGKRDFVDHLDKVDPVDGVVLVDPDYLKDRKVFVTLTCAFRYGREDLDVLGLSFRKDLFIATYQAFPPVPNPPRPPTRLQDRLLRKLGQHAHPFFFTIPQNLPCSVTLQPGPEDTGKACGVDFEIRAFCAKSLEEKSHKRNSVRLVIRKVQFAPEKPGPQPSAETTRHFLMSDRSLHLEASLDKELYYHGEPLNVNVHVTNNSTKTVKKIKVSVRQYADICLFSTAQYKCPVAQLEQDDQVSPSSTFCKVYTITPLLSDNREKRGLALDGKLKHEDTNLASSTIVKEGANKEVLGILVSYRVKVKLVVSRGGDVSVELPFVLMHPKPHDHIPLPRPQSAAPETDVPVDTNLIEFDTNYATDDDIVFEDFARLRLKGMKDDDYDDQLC
Target sequence in this assay (P28223 whole entry): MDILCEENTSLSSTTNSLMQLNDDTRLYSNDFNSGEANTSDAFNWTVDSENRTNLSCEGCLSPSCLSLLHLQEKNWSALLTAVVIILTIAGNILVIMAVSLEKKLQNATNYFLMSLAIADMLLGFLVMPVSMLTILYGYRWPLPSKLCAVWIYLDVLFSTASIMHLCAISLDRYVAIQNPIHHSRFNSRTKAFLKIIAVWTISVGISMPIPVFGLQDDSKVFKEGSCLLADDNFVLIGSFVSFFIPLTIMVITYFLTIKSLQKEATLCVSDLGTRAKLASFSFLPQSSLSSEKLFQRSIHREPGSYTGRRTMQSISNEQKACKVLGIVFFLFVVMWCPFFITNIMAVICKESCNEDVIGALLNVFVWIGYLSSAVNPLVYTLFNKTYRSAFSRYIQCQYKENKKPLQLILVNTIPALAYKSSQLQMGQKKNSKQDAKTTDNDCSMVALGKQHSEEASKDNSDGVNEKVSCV

5-HT2AR [2] = target: T1, 5-HT2AR; design: method as in PMID 32998000; details: wild-type 5-HT2AR; previously reported values; cited from earlier work; remark: listed apart in the source
Target sequence in this assay (P28223 whole entry): as above

5-HT2AR [3] = target: T1, 5-HT2AR; experiment: cell-based; format: cell-based
Target sequence in this assay (P28223 whole entry): as above

5-HT2AR [4] = target: T1, 5-HT2AR; experiment: cell-based; format: cell-based; details: for Emax: HEK-293T, read-out: β-arr2 Emax (%) [CI]
Target sequence in this assay (P32121 whole entry): as the sequence (P32121 whole entry) above
Target sequence in this assay (P28223 whole entry): as the sequence (P28223 whole entry) above

[5] = target: T2, 5-HT2AR S159A-mutated receptor (Homo sapiens, UniProt P28223, S159A); experiment: cell-based; format: cell-based; details: for EC50: read-out: β-arr2 EC50 (nM) [CI]
T2 construct: expressed in transfected cells; host or cells: HEK 293T (transient transfection); mutant made by site-directed mutagenesis of 5-HT2AR-LgBiT
Target sequence in this assay (P28223 whole entry S159A): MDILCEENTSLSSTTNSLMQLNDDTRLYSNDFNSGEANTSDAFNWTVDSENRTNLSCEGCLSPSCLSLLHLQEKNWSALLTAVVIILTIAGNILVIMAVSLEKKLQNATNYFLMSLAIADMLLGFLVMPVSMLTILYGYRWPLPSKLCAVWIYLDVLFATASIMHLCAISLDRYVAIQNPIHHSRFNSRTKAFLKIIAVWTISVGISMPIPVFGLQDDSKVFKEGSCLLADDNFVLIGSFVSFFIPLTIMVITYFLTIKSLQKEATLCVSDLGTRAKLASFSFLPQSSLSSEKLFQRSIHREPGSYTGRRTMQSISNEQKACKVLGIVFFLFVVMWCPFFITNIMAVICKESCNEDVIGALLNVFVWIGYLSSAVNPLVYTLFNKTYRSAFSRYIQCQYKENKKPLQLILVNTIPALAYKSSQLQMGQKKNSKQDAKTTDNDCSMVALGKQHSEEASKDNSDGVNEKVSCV
Target sequence in this assay (P32121 whole entry partner): as the sequence (P32121 whole entry) above

[6] = test system: 5-HT2AR S159A-mutated receptor; experiment: Bias factor (βarr2 vs miniGαq recruitment), intrinsic relative activity approach, S159A mutated 5-HT2AR; format: cell-based, human; details: 5-HT2A-S159A; for Alternative β-factor: from the combined EC50 and Emax values; for β-factor: average of three experiments
Procedure: The resulting data were analyzed as described before in more detail.[55] In brief, the obtained time–luminescence profiles are corrected for interwell variability and used for the calculation of the area under the curve (AUC), from which the AUC of the corresponding solvent control is subtracted. Data are then normalized using GraphPad Prism software (San Diego, CA), where the maximal response of the reference agonist is arbitrarily set at 100%. After pooling the data of the individual experiments, the potency and efficacy values are calculated in GraphPad Prism through three parametric nonlinear regression analysis. To quantify the tendency of the measured substances toward preferentially inducing one pathway or the other, bias factors are calculated via the “intrinsic relative activity approach.[56],[57] In this approach, an RAi value is calculated for each substance in each of the measured assays, relative to a reference agonist, using the following formula [drawing 1] The obtained values for the respective pathways are then combined into a bias factor, βi [drawing 2] This formula implies that the value of βi for the reference agonist is 0. A positive bias factor indicates a preference toward the recruitment of βarr2 over miniGαq, compared to the respective reference agonist. A negative bias factor then points to a relative preference toward the recruitment of miniGαq over βarr2. To assess whether the obtained bias factors are statistically significant from 0, a Kruskal–Wallis analysis (which is the nonparametric counterpart of one-way analysis of variance (ANOVA), selected a priori to avoid presumptuous conclusions) with post hoc Dunn’s multiple comparison was carried out in GraphPad Prism. To qualitatively visualize the possible preference of a certain substance towards recruiting either one cytosolic protein or the other, bias plots were generated via GraphPad Prism. To this end, the normalized AUC values obtained in the βarr2 assay are plotted on the x-axis, and those obtained in the miniGαq assay are plotted on the y-axis. On each plot, both the respective reference agonist and one substance of interest are plotted, and a curve is fitted through the centered second-order (quadratic) polynomial fitting.[58]

[7] = target: T2, 5-HT2AR S159A-mutated receptor; experiment: cell-based; format: cell-based; details: for Emax: read-out: miniGαq Emax (%) [CI]
Target sequence in this assay (P28223 whole entry S159A): as the sequence (P28223 whole entry S159A) above

[8] = test system: 5-HT2AR S159A-mutated receptor; experiment: cell-based; format: cell-based, human
5-HT2AR over 5-HT2CR = details: cited from earlier work
5-HT2AR [9] = details: 5-HT2AR S159A vs WT; ref 52 (Kim et al.); cited from earlier work
5-HT2AR [10] = test system: 5-HT2AR; design: method as in PMID 35084960; details: partial agonist with bias toward βarr2 over Gαq-γ9, reference 5-HT; cited from earlier work
5-HT2AR [11] = target: T1, 5-HT2AR; format: cell-based
Target sequence in this assay (P28223 whole entry): as the sequence (P28223 whole entry) above

[12] = read-out: miniGαq EC50 (nM) [CI]
[13] = read-out: β-arr2 EC50 (nM) [CI]

COc1cc(CCNCc2ccccc2OC)c(OC)cc1I [25I-NBOMe]
Emax, βarr2 assay (5-HT2AR [1]): 135–141%
Emax, miniGαq assay (5-HT2AR [2]): 111–160%

COc1cc(CCNC2CCOc3ccccc32)c(OC)cc1Br (racemic) [(±)-4d, (±)-N-(4-Bromo-2,5-dimethoxyphenethyl)chroman-4-amine Hydrochloride]
EC50 (5-HT2AR [3]; [12]): 174 nM and 168 nM
β-arr2 Emax (%) [CI] (5-HT2AR [4]): 108%
Emax (5-HT2AR [4]): 121%
EC50 (5-HT2AR [4]; [13]): 132 nM and 134 nM

COc1cc(CCNCc2ccccc2F)c(OC)cc1C#N [6c, 4-(2-((2-Fluorobenzyl)amino)ethyl)-2,5-dimethoxybenzonitrile Hydrochloride]
EC50 (5-HT2AR [3]; [12]): 168 nM and 164 nM
Reduction of agonist potency at 5-HT2AR S159A compared to WT, βarr2 recruitment assay [5]: 12 fold
β-arr2 Emax (%) [CI] [5]: 86.6 [81.5–92.0] % and 113%
EC50 [5]: 661 nM and 645 nM
β-arr2 Emax (%) [CI] (5-HT2AR [4]): 105%
Emax (5-HT2AR [4]): 114%
EC50 (5-HT2AR [4]; [13]): 53.2 nM and 53.3 nM
Alternative β-factor ([6]; referenced with 5-HT): 0.237
Alternative β-factor ([6]; referenced with LSD): 0.842
β-factor ([6]; relative to LSD): 0.731
β-factor ([6]; relative to serotonin (5-HT)): 0.186
EC50 [7]: 899 nM
EC50 [7, 12]: 1130 nM
Reduction of agonist potency at 5-HT2AR S159A compared to WT, miniGαq recruitment assay [8]: 7 fold

COc1cc(CCNCc2cccc(O)c2)c(OC)cc1Br [4a, 3-(((4-Bromo-2,5-dimethoxyphenethyl)amino)methyl)phenol Hydrochloride]
EC50 (5-HT2AR [3]; [12]): 48.8 nM and 46.9 nM
Reduction of agonist potency at 5-HT2AR S159A compared to WT, βarr2 recruitment assay [5]: approximately 15 fold
β-arr2 Emax (%) [CI] [5]: 89.8 [75.8–108] % and 110%
EC50 [5]: 172 nM and 175 nM
β-arr2 Emax (%) [CI] (5-HT2AR [4]): 98.9%
Emax (5-HT2AR [4]): 112%
EC50 (5-HT2AR [4]; [13]): 11.1 nM
Alternative β-factor ([6]; referenced with 5-HT): 0.096
Alternative β-factor ([6]; referenced with LSD): 0.566
miniGαq Emax (%) [CI] [7]: 36.8%
EC50 [7, 12]: 154 nM and 156 nM
Emax [7]: 21%
Reduction of agonist potency at 5-HT2AR S159A compared to WT, miniGαq recruitment assay [8]: ~3 fold

COc1cc(CCNC2COc3ccccc32)c(OC)cc1Br (racemic) [(±)-4c, (±)-N-(4-Bromo-2,5-dimethoxyphenethyl)-2,3-dihydrobenzofuran-3-amine Hydrochloride]
EC50 (5-HT2AR [3]): 24.5 nM
EC50 (5-HT2AR [3]; [12]): 23 nM
β-arr2 Emax (%) [CI] (5-HT2AR [4]): 85.5%
Emax (5-HT2AR [4]): 96.6%
EC50 (5-HT2AR [4]; β-arr2 EC50 (nM) [CI]): 28.6 nM and 28.7 nM

COc1cc(CCNCc2cccc(O)c2)c(OC)cc1C#N [6e, 4-(2-((3-Hydroxybenzyl)amino)ethyl)-2,5-dimethoxybenzonitrile Hydrochloride]
EC50 (5-HT2AR [3]; [12]): 301 nM and 299 nM
Reduction of agonist potency at 5-HT2AR S159A compared to WT, βarr2 recruitment assay [5]: ~10 fold
β-arr2 Emax (%) [CI] [5]: 84.1%
EC50 [5]: 939 nM and 938 nM
Emax ([5]; read-out: β-arr2 Emax (%) [CI]): 68.2%
β-arr2 Emax (%) [CI] (5-HT2AR [4]): 97.5%
Emax (5-HT2AR [4]): 106%
EC50 (5-HT2AR [4]; [13]): 84.5 nM
Alternative β-factor ([6]; referenced with 5-HT): 0.577
Alternative β-factor ([6]; referenced with LSD): 1.050
miniGαq Emax (%) [CI] [7]: 22.9%
EC50 [7, 12]: 2060 nM
Emax [7]: 12.9%
Reduction of agonist potency at 5-HT2AR S159A compared to WT, miniGαq recruitment assay [8]: 6.9 fold

COc1cccc(CNCCc2cc(OC)c(Br)cc2OC)c1 [4b, 2-(4-Bromo-2,5-dimethoxyphenyl)-N-(3-methoxybenzyl)ethan-1-amine Hydrochloride]
EC50 (5-HT2AR [3]; [12]): 44.4 nM and 43.3 nM
Reduction of agonist potency at 5-HT2AR S159A compared to WT, βarr2 recruitment assay [5]: 7 fold
β-arr2 Emax (%) [CI] [5]: 106 [97.5–114] % and 130%
EC50 [5]: 81.9 nM and 80.4 nM
β-arr2 Emax (%) [CI] (5-HT2AR [4]): 100%
Emax (5-HT2AR [4]): 113%
EC50 (5-HT2AR [4]; [13]): 11.1 nM
Alternative β-factor ([6]; referenced with 5-HT): 0.043
Alternative β-factor ([6]; referenced with LSD): 0.494
β-factor ([6]; relative to LSD): 0.565
β-factor ([6]; relative to serotonin (5-HT)): 0.102
EC50 [7]: 118 nM
miniGαq Emax (%) [CI] [7]: 44.7 [36.9–53.9] % and 81.0%
EC50 [7, 12]: 112 nM

COc1cc(CCNCc2ccccc2O)c(OC)cc1I [25I-NBOH]
Emax, βarr2 assay (5-HT2AR [1]): 135–141%
Emax, miniGαq assay (5-HT2AR [2]): 111–160%

COc1cc(CCNCc2ccccc2OC)c(OC)cc1C#N [6b, 2,5-Dimethoxy-4-(2-((2-methoxybenzyl)amino)ethyl)benzonitrile Hydrochloride]
EC50 (5-HT2AR [3]; [12]): 6.7 nM and 6.71 nM and 6.53 nM
β-arr2 Emax (%) [CI] (5-HT2AR [4]): 148%
Emax (5-HT2AR [4]): 161%
EC50 (5-HT2AR [4]; [13]): 1.9 nM and 1.93 nM and 1.94 nM

COc1cc(CC2CCCC(c3ccccc3OC)N2)c(OC)cc1Br [(S,S)-DMBMPP]
Selectivity over 5-HT2CR (5-HT2AR over 5-HT2CR): 124 fold

COc1cc(CCNCc2cccc3c2OCO3)c(OC)cc1C#N [6d, 4-(2-((Benzo[d][1,3]dioxol-4-ylmethyl)amino)ethyl)-2,5-dimethoxybenzonitrile Hydrochloride]
EC50 (5-HT2AR [3]; [12]): 45.1 nM and 47.3 nM
β-arr2 Emax (%) [CI] (5-HT2AR [4]): 106%
Emax (5-HT2AR [4]): 114%
EC50 (5-HT2AR [4]; [13]): 17 nM and 17.1 nM

CCN(CC)C(=O)[C@@H]1C=C2c3cccc4[nH]cc(c34)C[C@H]2N(C)C1 [LSD, lysergic acid diethylamide, reference compound]
β-arr2 Emax (%) [CI] [5]: 99.9 [93.7–106] % and 128%
β-arr2 Emax (%) [CI] (5-HT2AR [4]): 90.7%
Emax (5-HT2AR [4]): 99.7%
β-factor ([6]; relative to LSD): 0
β-factor ([6]; relative to serotonin (5-HT)): -0.533

NCCc1c[nH]c2ccc(O)cc12 [5-HT, serotonin, reference compound]
Drop in efficacy in the S159A-mutated 5-HT2AR, β-arr2 [5]: 33%
β-factor ([6]; relative to LSD): 0.550
β-factor ([6]; relative to serotonin (5-HT)): 0
Drop in efficacy in the S159A-mutated 5-HT2AR, miniGαq [8]: 173%
Reduction of agonist potency at 5-HT2AR S159A compared to WT, miniGαq recruitment assay [8]: 13 fold
Change of efficacy with the S159A mutation, Gαq-dissociation BRET assay (5-HT2AR [9]): remained roughly unchanged
Decrease in potency with the S159A mutation, Gαq-dissociation BRET assay (5-HT2AR [9]): 157 fold

COc1ccccc1CCCN1CC[C@H]2[C@@H](C1)c1cccc3c1N2CCN3C [IHCH-7086]
Emax (5-HT2AR [10]): 13%

COc1cc(CCNC2COc3ccccc32)c(OC)cc1C#N (racemic) [(±)-6f, (±)-4-(2-((2,3-Dihydrobenzofuran-3-yl)amino)ethyl)-2,5-dimethoxybenzonitrile Hydrochloride]
EC50 (5-HT2AR [3]; [12]): 631 nM and 608 nM
Reduction of agonist potency at 5-HT2AR S159A compared to WT, βarr2 recruitment assay [5]: ~10 fold
β-arr2 Emax (%) [CI] [5]: 90.8 [81.9–101] % and 118%
EC50 [5]: 1020 nM and 1030 nM
β-arr2 Emax (%) [CI] (5-HT2AR [4]): 76.0%
Emax (5-HT2AR [4]): 82.9%
EC50 (5-HT2AR [4]; [13]): 108 nM
Alternative β-factor (5-HT2AR [11]): 1.420 and 0.711
Bias judged from the bias plot, relative to LSD (5-HT2AR [11]): highly biased for βarr2 recruitment
Bias judged from the bias plot, relative to serotonin (5-HT2AR [11]): strong preference toward βarr2 recruitment
Difference in potency between the β-arr2 and miniGαq assays (5-HT2AR [11]): 6 fold
Alternative β-factor ([6]; referenced with 5-HT): 0.486
Alternative β-factor ([6]; referenced with LSD): 1.010
EC50 [7, 12]: 1650 nM
Reduction of agonist potency at 5-HT2AR S159A compared to WT, miniGαq recruitment assay [8]: 2.6 fold
